Values joined by “and” are separate entries in the source; they are usually repeats but may differ in a detail not shown here. Equal values may be shown once.
How the values were obtained:
[1] = system: NaV channels endogenously expressed in GH3b6 cells; test: FRET voltage sensor probe (VSP) assay of BTX-induced depolarization in GH3b6 cells; format: cell-based, rat; settings: for Inhibitory Effects (%) on BTX-induced VSP signal (screening): IA at 10–50 µg/mL co-incubated with 1 µM BTX; for Inhibitory Effects (%) on BTX-induced VSP signal (screening) / Maximum of Inhibition of BTX-evoked VSP signal / IC50: GH3b6 cells; for Maximum of Inhibition of BTX-evoked VSP signal / IC50: BTX 1 µM, n = 6; for Maximum of Inhibition of BTX-evoked VSP signal: % printed only; for IC50: read-out: IC50 (µM), inhibition of BTX-evoked VSP signal
human NaV1.3 channel = human NaV1.3 channel (Homo sapiens, UniProt Q9NY46); test: ANG-2 intracellular Na+ fluorescent assay in HEK293-hNaV1.3 cells; format: cell-based
hNaV1.3 channel = molecular target: T1, hNaV1.3 channel (Homo sapiens, UniProt Q9NY46); test: Automated patch-clamp, Na+ currents in HEK293-hNaV1.3 cells; format: cell-based; settings: for Effect on Na+ currents elicited by hNaV1.3: HEK293-hNaV1.3, without BTX
T1 construct: expressed in transfected cells
Experimental: (§1) GH3b6 cells are a subclone of the GH3 pituitary cell line and were a generous gift from Dr. Françoise Macari (IGF, Montpellier, France). GH3b6 cells were cultivated from passage 14 until passage 32 at 37 °C/5% CO2 in Dubelcco’s Modified Eagle Medium (DMEM)/F12 (Lonza, Basel, Switzerland), supplemented with 10% FBS (Lonza, Basel, Switzerland), 1 mM L-glutamine, and 1 mM penicillin and streptomycin solution. For the fluorescence assay, the GH3b6 cells were seeded in black-walled, clear-bottom, 96-well, tissue culture-treated, and sterile imaging plates (Corning Hazebrouck, France), at a density of 10,000 cells per well, and incubated for 24 h before starting the experiment. The human Nav1.3 (hNav1.3) channel-expressing cell line (HEK293) used in this work was a generous gift from Massimo Mantegazza (IPMC, Nice, France). HEK293-hNaV1.3 cells were cultivated from passage 20 until passage 35 at 37 °C/5% CO2 in a DMEM high glucose medium (4.5 g/l), supplemented with 10% FBS, pyruvate, L-glutamine, and penicillin and streptomycin solution, each one at 1 mM, completed with 800 µg/mL geneticin G418. For the fluorescence assays, the cells were plated at a density of 50,000 cells per well in black-walled, clear-bottom, 96-well plates and then cultured at 37 °C and 5% CO2 for 24 h before the experiments. HEK293 stably expressing hNaV1.2 and hNaV1.6 were cultivated in the same conditions mentioned above for the HEK293-hNaV1.3 cells. For the automated patch-clamp experiments, cells were passaged from 24 to 48 h prior to the experiment and replated in the appropriate quantity to reach 50–70% confluence. For electrophysiological recordings, cells were detached with trypsin-EDTA and diluted in a culture medium. Then, the cells were centrifuged at 800 rpm for 4 min and resuspended (~300,000 cells/mL) in a patch-clamp extracellular solution.
(§2) Whole-cell recordings were used to investigate the effects of oxostephanine, liriodenine, thalmiculine, bebeerine, and protopine on HEK293 cells stably expressing the hNav1.2, hNav1.3, and hNav1.6 channels. Automated patch-clamp recordings were performed using the SyncroPatch 384PE from Nanion (München, Germany). Chips with a single hole (n = 384, series resistance 3.93 ± 1.19 MΩ) were used for HEK293 cell recordings. Pulse generation and data collection were performed with the PatchControl384 v1.9.7 software (Nanion) and the Biomek interface (Beckman Coulter). Whole-cell recordings were conducted according to the recommended procedures of Nanion. The cells were stored in a cell hotel reservoir at 10 °C, with a shaking speed of 60 RPM. After initiating the experiment, cell catch, sealing, whole-cell formation, liquid application, recording, and data acquisition were all performed sequentially and automatically. The intracellular solution contained (in mM): 10 CsCl, 110 CsF, 10 NaCl, 10 EGTA, and 10 HEPES (pH 7.2, osmolarity 280 mOsm), and the extracellular solution contained (in mM): 60 NMDG, 80 NaCl, 4 KCl, 2 CaCl2, 1 MgCl2, 5 Glucose, and 10 HEPES (pH 7.4 (NaOH), osmolarity 280 ± 3 mOsm). Whole-cell experiments were performed at a holding potential of −100 mV at room temperature (18–22 °C). Currents were sampled at 20 kHz. For pharmacological assays, alkaloid solutions were prepared at 30 µM in the extracellular solution supplemented with 0.3% bovine serum albumin and distributed in 384-well compound plates according to a pre-established plate plan. This distribution within compound plates could not be randomized since it would then excessively complexify the methods of analyses. The working compound solution was diluted 3 times in the patch-clamp recording well by adding from 30 to 60 µL of the external solution to reach the final reported concentration and the test volume of 90 µL. The effects of IA (10 µM) or of BTX (1 µM) were measured at the end of a 10 min application time. Activation curves were built by depolarizations lasting for 2000 ms, from −130 mV to 40 mV, using 5 mV increment steps. […]

hNaV1.2 channel = molecular target: T2, hNaV1.2 channel (Homo sapiens, UniProt Q99250); test: Automated patch-clamp, Na+ currents in HEK293-hNaV1.2 cells; format: cell-based; settings: for Effect on Na+ currents elicited by hNaV1.2: HEK293-hNaV1.2
T2 construct: expressed in transfected cells
T2 sequence (Q99250 whole entry): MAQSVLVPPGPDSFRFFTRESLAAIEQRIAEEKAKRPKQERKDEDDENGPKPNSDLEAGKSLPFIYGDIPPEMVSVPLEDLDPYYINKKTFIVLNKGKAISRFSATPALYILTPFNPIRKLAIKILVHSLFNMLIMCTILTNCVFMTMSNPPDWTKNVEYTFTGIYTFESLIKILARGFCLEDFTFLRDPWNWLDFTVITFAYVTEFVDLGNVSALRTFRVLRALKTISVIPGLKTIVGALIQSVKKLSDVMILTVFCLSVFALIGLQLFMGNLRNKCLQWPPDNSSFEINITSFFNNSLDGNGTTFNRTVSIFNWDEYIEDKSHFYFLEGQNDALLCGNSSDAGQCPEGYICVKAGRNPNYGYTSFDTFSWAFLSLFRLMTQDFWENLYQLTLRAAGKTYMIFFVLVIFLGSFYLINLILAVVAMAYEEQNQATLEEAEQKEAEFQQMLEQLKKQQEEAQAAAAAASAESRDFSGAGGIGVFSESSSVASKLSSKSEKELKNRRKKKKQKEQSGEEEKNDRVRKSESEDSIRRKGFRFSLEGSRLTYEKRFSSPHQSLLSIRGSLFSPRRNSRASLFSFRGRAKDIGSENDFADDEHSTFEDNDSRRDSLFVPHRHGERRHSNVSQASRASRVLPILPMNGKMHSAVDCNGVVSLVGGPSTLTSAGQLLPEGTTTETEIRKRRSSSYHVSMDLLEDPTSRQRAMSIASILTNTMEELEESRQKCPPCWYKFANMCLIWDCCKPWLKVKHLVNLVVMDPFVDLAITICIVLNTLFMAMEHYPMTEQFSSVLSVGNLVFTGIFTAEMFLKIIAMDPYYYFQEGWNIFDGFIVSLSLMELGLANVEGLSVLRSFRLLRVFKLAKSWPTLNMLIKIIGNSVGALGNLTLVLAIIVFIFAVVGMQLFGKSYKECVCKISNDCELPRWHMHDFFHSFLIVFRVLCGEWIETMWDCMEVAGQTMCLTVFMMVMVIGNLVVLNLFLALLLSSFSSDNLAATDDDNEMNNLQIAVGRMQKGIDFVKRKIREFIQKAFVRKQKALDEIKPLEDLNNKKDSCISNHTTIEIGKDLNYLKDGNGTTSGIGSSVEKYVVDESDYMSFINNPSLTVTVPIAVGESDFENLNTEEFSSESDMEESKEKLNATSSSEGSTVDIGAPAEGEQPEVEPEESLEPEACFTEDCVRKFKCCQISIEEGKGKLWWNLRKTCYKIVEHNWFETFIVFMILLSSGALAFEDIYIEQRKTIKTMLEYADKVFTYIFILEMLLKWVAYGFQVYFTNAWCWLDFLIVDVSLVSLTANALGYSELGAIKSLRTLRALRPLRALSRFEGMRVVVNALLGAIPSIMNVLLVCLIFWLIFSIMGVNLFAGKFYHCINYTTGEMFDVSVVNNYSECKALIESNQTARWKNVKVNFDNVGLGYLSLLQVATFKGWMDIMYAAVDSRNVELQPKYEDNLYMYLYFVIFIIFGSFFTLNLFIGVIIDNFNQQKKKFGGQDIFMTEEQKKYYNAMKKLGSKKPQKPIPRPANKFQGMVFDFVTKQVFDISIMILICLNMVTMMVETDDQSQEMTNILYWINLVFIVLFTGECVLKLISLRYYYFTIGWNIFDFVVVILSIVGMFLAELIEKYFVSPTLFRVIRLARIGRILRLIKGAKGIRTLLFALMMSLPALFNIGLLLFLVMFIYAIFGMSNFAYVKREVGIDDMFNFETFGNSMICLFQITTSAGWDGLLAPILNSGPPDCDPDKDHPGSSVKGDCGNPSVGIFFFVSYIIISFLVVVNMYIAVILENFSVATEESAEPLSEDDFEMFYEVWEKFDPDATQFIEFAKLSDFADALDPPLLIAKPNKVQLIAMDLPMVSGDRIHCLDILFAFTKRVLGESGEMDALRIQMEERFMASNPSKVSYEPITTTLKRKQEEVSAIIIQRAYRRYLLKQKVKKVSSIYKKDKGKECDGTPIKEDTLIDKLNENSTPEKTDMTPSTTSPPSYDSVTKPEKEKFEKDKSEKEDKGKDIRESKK
Experimental: as §1, §2

hNaV1.6 channel = molecular target: T3, hNaV1.6 channel (Homo sapiens, UniProt Q9UQD0); test: Automated patch-clamp, Na+ currents in HEK293-hNaV1.6 cells; format: cell-based; settings: for inhibition at 10 µM / Change in V1/2 of activation and inactivation vs control / Effect on Na+ currents elicited by hNaV1.6: 10 µM; for Effect on Na+ currents elicited by hNaV1.6: HEK293-hNaV1.6
T3 construct: expressed in transfected cells
T3 sequence (Q9UQD0 whole entry): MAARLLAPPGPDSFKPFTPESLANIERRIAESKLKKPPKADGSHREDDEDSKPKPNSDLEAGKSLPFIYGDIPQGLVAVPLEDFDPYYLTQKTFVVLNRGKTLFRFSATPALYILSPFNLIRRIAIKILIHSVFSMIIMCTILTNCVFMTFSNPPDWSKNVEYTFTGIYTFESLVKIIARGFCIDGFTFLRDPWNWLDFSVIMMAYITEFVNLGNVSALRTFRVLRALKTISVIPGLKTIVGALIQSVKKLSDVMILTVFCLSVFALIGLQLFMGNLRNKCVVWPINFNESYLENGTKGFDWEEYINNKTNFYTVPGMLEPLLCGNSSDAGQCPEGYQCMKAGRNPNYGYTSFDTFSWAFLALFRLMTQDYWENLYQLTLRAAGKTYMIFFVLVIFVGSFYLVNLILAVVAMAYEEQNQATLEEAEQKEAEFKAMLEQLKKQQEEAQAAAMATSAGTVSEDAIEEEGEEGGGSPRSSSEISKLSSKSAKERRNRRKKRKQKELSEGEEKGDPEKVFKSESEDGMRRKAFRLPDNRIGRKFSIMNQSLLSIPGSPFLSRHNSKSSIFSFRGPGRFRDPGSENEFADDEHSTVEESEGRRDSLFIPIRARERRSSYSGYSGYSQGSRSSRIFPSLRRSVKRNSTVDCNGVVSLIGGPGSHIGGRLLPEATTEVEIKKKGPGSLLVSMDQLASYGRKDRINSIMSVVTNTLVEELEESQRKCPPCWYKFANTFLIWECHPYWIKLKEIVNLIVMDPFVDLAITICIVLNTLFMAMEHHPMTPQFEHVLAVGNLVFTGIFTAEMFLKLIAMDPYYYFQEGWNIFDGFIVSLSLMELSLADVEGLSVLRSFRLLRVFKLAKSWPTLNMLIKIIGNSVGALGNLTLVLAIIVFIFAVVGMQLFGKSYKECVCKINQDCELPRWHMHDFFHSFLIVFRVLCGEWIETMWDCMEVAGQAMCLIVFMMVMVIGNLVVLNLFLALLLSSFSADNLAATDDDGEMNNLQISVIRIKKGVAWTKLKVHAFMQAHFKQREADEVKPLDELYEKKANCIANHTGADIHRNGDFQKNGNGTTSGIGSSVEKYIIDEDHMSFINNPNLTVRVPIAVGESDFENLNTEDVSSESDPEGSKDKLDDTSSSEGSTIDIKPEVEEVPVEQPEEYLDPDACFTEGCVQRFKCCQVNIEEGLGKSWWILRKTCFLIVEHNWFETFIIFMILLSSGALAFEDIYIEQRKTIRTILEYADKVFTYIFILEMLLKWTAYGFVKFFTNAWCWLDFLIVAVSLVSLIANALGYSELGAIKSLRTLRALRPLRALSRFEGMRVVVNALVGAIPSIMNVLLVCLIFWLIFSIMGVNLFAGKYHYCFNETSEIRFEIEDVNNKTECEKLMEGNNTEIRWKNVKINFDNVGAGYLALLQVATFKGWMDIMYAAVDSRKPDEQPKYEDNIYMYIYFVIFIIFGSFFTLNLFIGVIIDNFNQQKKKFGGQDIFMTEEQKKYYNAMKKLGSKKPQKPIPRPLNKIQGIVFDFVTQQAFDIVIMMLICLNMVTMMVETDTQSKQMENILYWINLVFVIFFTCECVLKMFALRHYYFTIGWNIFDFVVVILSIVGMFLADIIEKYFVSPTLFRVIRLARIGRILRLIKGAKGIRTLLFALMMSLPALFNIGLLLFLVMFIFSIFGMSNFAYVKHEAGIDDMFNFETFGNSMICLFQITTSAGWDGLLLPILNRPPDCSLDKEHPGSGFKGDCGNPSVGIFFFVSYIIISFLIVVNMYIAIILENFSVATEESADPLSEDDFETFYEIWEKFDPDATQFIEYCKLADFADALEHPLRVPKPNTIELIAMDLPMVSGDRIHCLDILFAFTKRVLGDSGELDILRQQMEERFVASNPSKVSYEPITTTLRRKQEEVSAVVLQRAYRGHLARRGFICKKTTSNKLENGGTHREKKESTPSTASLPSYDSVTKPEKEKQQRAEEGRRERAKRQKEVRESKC
Experimental: as §1, §2

[2] = 10 µM, Vm between −20 mV and 30 mV
[3] = IA at 10 µM, BTX 3 µM, HEK293-hNaV1.3

Compound: COc1ccc2cc1Oc1ccc(cc1)C[C@H]1c3cc(c(OC)cc3CCN1C)Oc1c(OC)c(OC)cc3c1[C@H](C2)N(C)CC3 [IA50, tetrandine]
- Inhibitory Effects (%) on BTX-induced VSP signal (screening) [1]: 78.3%

Compound: COc1cc2c3cc1Oc1cc(ccc1O)CC1c4c(cc(OC)c(O)c4Oc4ccc(cc4)CC3N(C)CC2)CCN1C (stereo not drawn) [IA52, bebeerine]
- Maximum of Inhibition of BTX-evoked VSP signal [1]: 41.04 ± 3.44%
- IC50 [1]: 0.74 ± 0.11 µM
- Inhibitory Effects (%) on BTX-induced VSP signal (screening) [1]: 81.9%
- inhibition at 10 µM (human NaV1.3 channel; IA at 10 µM, BTX 3 µM, HEK293-hNaV1.3, read-out: Inhibition of BTX-induced [Na+]i elevation (ANG-2 signal)): 18 ± 2%
- inhibition at 10 µM (hNaV1.3 channel; [2]): 60 to 64%
- inhibition at 10 µM (hNaV1.3 channel; 10 µM, at −15 mV): 64 ± 4%
- Shift in V1/2 activation vs control (hNaV1.3 channel; hNaV1.3, 10 µM): −3.6 ± 1.0
- Activation Slope (±SEM) (hNaV1.3 channel; hNaV1.3, 10 µM bebeerine): 6.4 ± 0.3 ^2
- Activation V1/2 (±SEM, mV) (hNaV1.3 channel; hNaV1.3, 10 µM bebeerine): −26.9 ± 0.7 (n = 51) mV
- Inactivation Slope (±SEM) (hNaV1.3 channel; hNaV1.3, 10 µM bebeerine): −8.9 ± 0.3 ^5
- Inactivation V1/2 (±SEM, mV) (hNaV1.3 channel; hNaV1.3, 10 µM bebeerine): −60.2 ± 0.9 (n = 26) mV
- inhibition at 10 µM (hNaV1.2 channel; [2]): 42 to 50%
- IC50 (hNaV1.2 channel; estimated from inhibition at 10 µM, read-out: IC50 on Na+ currents elicited by hNaV1.2): < 10 µM and > 10 µM
- Change in V1/2 of activation and inactivation vs control (hNaV1.2 channel; hNaV1.2, 10 µM): no significant change
- Activation Slope (±SEM) (hNaV1.2 channel; hNaV1.2, 10 µM bebeerine): 5.8 ± 0.3 ^1
- Activation V1/2 (±SEM, mV) (hNaV1.2 channel; hNaV1.2, 10 µM bebeerine): −29.1 ± 1.1 (n = 36) mV
- Inactivation Slope (±SEM) (hNaV1.2 channel; hNaV1.2, 10 µM bebeerine): −8.5 ± 0.3 ^4
- Inactivation V1/2 (±SEM, mV) (hNaV1.2 channel; hNaV1.2, 10 µM bebeerine): −62.3 ± 1.1 (n = 21) mV
- inhibition at 10 µM (hNaV1.6 channel; Vm between −20 mV and 30 mV): 70 to 74%
- inhibition at 10 µM (hNaV1.6 channel; at −20 mV): 74 ± 3%
- IC50 (hNaV1.6 channel; estimated from inhibition at 10 µM, read-out: IC50 on Na+ currents elicited by hNaV1.6): < 10 µM and > 10 µM
- Change in V1/2 of activation and inactivation vs control (hNaV1.6 channel; hNaV1.6): no significant change
- Activation Slope (±SEM) (hNaV1.6 channel; hNaV1.6, 10 µM bebeerine): 7.0 ± 0.3 ^3
- Activation V1/2 (±SEM, mV) (hNaV1.6 channel; hNaV1.6, 10 µM bebeerine): −22.1 ± 0.7 (n = 32) mV
- Inactivation Slope (±SEM) (hNaV1.6 channel; hNaV1.6, 10 µM bebeerine): −9.0 ± 0.3 ^6
- Inactivation V1/2 (±SEM, mV) (hNaV1.6 channel; hNaV1.6, 10 µM bebeerine): −60.2 ± 0.7 (n = 24) mV

Compound: NC1=N[C@H](O)[C@H]2[C@H]3O[C@]4(O)O[C@@H]([C@@H](O)[C@@]2(N1)[C@@H]4O)[C@]3(O)CO [TTX, tetrodotoxin, reference compound]
- Effect on VSP fluorescence emission ratio induced by BTX [1]: fully abolished
- IC50 of TTX on VSP signal ratio induced by BTX [1]: 0.00858 ± 0.00167 µM
- Inhibition of BTX-induced ANG-2 fluorescence ratio (human NaV1.3 channel): 92 ± 5%

Compound: gyrocarpusine [IA42]
- Inhibitory Effects (%) on BTX-induced VSP signal (screening) [1]: 78.5%

Compound: protopine [IA69]
- Maximum of Inhibition of BTX-evoked VSP signal [1]: 64.67 ± 5.50%
- IC50 [1]: 3.97 ± 0.1 µM
- Inhibitory Effects (%) on BTX-induced VSP signal (screening) [1]: 99.9%
- Inhibition of BTX-induced [Na+]i elevation (ANG-2 signal) (human NaV1.3 channel; [3]): no significant inhibitory effects
- Effect on Na+ currents elicited by hNaV1.3 (hNaV1.3 channel; 10 µM): no effects
- Change in V1/2 of activation and inactivation vs control (hNaV1.3 channel; hNaV1.3, 10 µM): ns
- Effect on Na+ currents elicited by hNaV1.2 (hNaV1.2 channel; 10 µM): no effects
- Change in V1/2 of activation and inactivation vs control (hNaV1.2 channel; hNaV1.2, 10 µM): ns
- Effect on Na+ currents elicited by hNaV1.6 (hNaV1.6 channel): no effects
- Change in V1/2 of activation and inactivation vs control (hNaV1.6 channel; hNaV1.6): ns

Compound: thalmiculine [IA49]
- Maximum of Inhibition of BTX-evoked VSP signal [1]: 31.07 ± 4.04%
- IC50 [1]: 0.38 ± 0.19 µM
- Inhibitory Effects (%) on BTX-induced VSP signal (screening) [1]: 91.1%
- Inhibition of BTX-induced [Na+]i elevation (ANG-2 signal) (human NaV1.3 channel; [3]): no significant inhibitory effects
- Effect on Na+ currents elicited by hNaV1.3 (hNaV1.3 channel; 10 µM): no effects
- Change in V1/2 of activation and inactivation vs control (hNaV1.3 channel; hNaV1.3, 10 µM): ns
- Effect on Na+ currents elicited by hNaV1.2 (hNaV1.2 channel; 10 µM): no effects
- Change in V1/2 of activation and inactivation vs control (hNaV1.2 channel; hNaV1.2, 10 µM): ns
- Effect on Na+ currents elicited by hNaV1.6 (hNaV1.6 channel): no effects
- Change in V1/2 of activation and inactivation vs control (hNaV1.6 channel; hNaV1.6): ns

Reference: PMC9268414, “Screening an In-House Isoquinoline Alkaloids Library for New Blockers of Voltage-Gated Na^+ Channels Using Voltage Sensor Fluorescent Probes: Hits and Biases” (Molecules, 2022)
